# Experimental data published in ChEMBL document CHEMBL1134901, “Synthesis and activity of novel HIV protease inhibitors with improved potency against multiple PI-resistant viral strains” (Bioorg Med Chem Lett, 2002).
# pIC50: −log10 of the molar value.
# How the values were obtained:
# [1] = test system: Human immunodeficiency virus 1; assay: In vitro inhibition of spread of viral infection using 4X mutant virus; assay type: functional; conditions: read-out: CIC95
# MT4 = assay: Concentration required to inhibit the spread of viral infection in MT-4 human T-lymphoid cells infected by the NL4-3 virus; assay type: functional; conditions: read-out: CIC95
# [2] = target: T1, Human immunodeficiency virus type 1 protease (Human immunodeficiency virus 1, UniProt Q72874); assay: Inhibitory concentration against wild-type HIV-1 protease
# [3] = Maximum concentration in dogs administered perorally (5 mg/kg) and intravenously (2 mg/kg); assay type: ADME, organism-based, Canis lupus familiaris; conditions: dog, in vivo, po
# [4] = Intrinsic clearance in human liver microsomes; assay type: ADME, Microsome
# [5] = Plasma clearance in dogs administered perorally (5 mg/kg) and intravenously (2 mg/kg); assay type: ADME, organism-based, Canis lupus familiaris; conditions: dog, iv, read-out: Clp
# [6] = test system: Human immunodeficiency virus 1; assay: Potency against PI-resistant viral isolate construct HIV K-60C; assay type: functional; conditions: read-out: CIC95
# [7] = test system: Human immunodeficiency virus 1; assay: Potency against PI-resistant viral isolate construct HIV Q-60C; assay type: functional; conditions: read-out: CIC95
# [8] = test system: Human immunodeficiency virus 1; assay: Potency against PI-resistant virus HIV 4X; assay type: functional; conditions: read-out: CIC95
# [9] = test system: Human immunodeficiency virus 1; assay: Potency against PI-resistant virus HIV NL-4; assay type: functional; conditions: read-out: CIC95
# Cytochrome P450 2D6 = Cytochrome P450 2D6 (Homo sapiens, UniProt P10635); assay: Inhibition of cytochrome P450 2D6; assay type: ADME
# Cytochrome P450 3A4 = Cytochrome P450 3A4 (Homo sapiens, UniProt P08684); assay: Inhibition of cytochrome P450 3A4; assay type: ADME
# [10] = test system: Human immunodeficiency virus 1; assay: Potency against PI-resistant viral isolate construct HIV V-18C; assay type: functional; conditions: read-out: CIC95
# [11] = target: T1, Human immunodeficiency virus type 1 protease; assay: Inhibitory concentration required to inhibit cleavage of a substrate by thewild-type HIV-1 protease enzyme
# [12] = Bioavailability in dog (dose 5 mg/kg p.o. and 2 mg/kg i.v.); assay type: ADME, organism-based, Canis lupus familiaris; conditions: in vivo, po
# [13] = Half life in dogs administered perorally (5 mg/kg) and intravenously (2 mg/kg); assay type: ADME, organism-based, Canis lupus familiaris; conditions: dog, in vivo
# [14] = Area under curve in dogs administered perorally (5 mg/kg) and intravenously (2 mg/kg); assay type: ADME, organism-based, Canis lupus familiaris; conditions: dog, in vivo
# Cytochrome P450 3A4, sequence (P08684 whole entry): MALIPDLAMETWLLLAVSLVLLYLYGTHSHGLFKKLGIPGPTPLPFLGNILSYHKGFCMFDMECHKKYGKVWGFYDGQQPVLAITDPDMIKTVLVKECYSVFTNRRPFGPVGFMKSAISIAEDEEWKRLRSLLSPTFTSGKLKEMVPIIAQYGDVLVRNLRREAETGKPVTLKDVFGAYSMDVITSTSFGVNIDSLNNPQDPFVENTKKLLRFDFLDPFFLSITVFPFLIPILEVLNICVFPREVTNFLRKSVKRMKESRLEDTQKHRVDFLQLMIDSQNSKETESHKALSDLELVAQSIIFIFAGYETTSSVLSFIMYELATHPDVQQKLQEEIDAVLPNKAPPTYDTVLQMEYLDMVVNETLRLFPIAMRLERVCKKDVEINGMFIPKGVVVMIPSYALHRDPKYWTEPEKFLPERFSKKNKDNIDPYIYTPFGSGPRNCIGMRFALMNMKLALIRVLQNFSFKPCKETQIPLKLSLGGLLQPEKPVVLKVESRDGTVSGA
# Cytochrome P450 2D6, sequence (P10635 whole entry): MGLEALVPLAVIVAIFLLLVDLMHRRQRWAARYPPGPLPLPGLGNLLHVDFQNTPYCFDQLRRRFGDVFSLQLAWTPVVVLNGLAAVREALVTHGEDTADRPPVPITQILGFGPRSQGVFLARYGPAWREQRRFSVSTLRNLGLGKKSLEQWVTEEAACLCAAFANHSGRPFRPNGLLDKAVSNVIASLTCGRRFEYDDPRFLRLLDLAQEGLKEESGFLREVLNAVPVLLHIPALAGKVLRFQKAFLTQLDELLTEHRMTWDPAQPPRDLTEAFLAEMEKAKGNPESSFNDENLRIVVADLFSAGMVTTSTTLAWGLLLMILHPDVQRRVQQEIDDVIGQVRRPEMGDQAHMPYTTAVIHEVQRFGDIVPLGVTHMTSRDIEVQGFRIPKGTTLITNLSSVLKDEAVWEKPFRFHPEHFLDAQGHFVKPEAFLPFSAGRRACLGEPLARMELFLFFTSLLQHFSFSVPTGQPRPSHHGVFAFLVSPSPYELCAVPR
SMILES,IC95 [1],IC95 (MT4),pIC50 [2],also measured
CC(C)CNC(=O)[C@@H]1CN(C(C)(C)c2cc3cnccc3o2)CCN1C[C@@H](O)C[C@@H](Cc1ccccc1)C(=O)N[C@H]1c2ccccc2OC[C@H]1O,125 nM,15 nM,9.40,–
CC(C)(C)CNC(=O)[C@@H]1CN(C(C)(C)c2cc3cnccc3o2)CCN1C[C@@H](O)C[C@@H](Cc1ccccc1)C(=O)N[C@H]1c2ccccc2OC[C@H]1O,500 nM,31 nM,8.94,–
CCNC(=O)[C@@H]1CN(C(C)(C)c2cc3cnccc3o2)CCN1C[C@@H](O)C[C@@H](Cc1ccccc1)C(=O)N[C@H]1c2ccccc2OC[C@H]1O,62 nM,31 nM,9.21,–
CC(C)(c1cc2cnccc2o1)N1CCN(C[C@@H](O)C[C@@H](Cc2ccccc2)C(=O)N[C@H]2c3ccccc3OC[C@H]2O)[C@H](C(=O)NCC(F)(F)C(F)(F)F)C1,62 nM,≤ 8 nM,9.85,–
CC(C)(C)NC(=O)[C@@H]1CN(C(C)(C)c2cc3cnccc3o2)CCN1C[C@@H](O)C[C@@H](Cc1ccccc1)C(=O)N[C@H]1c2ccccc2OC[C@H]1O,31 nM,≤ 8 nM,10.10,Cmax [3]: 8.8 µM; CLint scaled [4]: 34 mL/min/kg; clearance [5]: 14.2 mL/min/kg; IC95 [6]: 500 nM; IC95 [7]: 125 nM; IC95 [8]: 16 nM; IC95 [9]: 9.2 nM; pIC50 (Cytochrome P450 2D6): 5.61; pIC50 (Cytochrome P450 3A4): 6.51; IC95 [10]: 125 nM
CC(C)(c1cc2cnccc2o1)N1CCN(C[C@@H](O)C[C@@H](Cc2ccccc2)C(=O)N[C@H]2c3ccccc3OC[C@H]2O)[C@H](C(=O)NCc2ccccc2)C1,250 nM,125 nM,8.66,–
CC(C)(c1cc2cnccc2o1)N1CCN(C[C@@H](O)C[C@@H](Cc2ccccc2)C(=O)N[C@H]2c3ccccc3OC[C@H]2O)[C@H](C(=O)NCC2CC2)C1,125 nM,46 nM,9.30,–
CC(C)(C)NC(=O)[C@@H]1CN(Cc2cccnc2)CCN1C[C@@H](O)C[C@@H](Cc1ccccc1)C(=O)N[C@H]1c2ccccc2C[C@H]1O,–,–,–,IC95 [6]: > 1000 nM; IC95 [7]: > 1000 nM; IC95 [8]: 400 nM; IC95 [9]: 50 nM; IC95 [10]: > 1000 nM
CC(C)(c1cc2cnccc2o1)N1CCN(C[C@@H](O)C[C@@H](Cc2ccccc2)C(=O)N[C@H]2c3ccccc3OC[C@H]2O)[C@H](C(=O)NCc2cccs2)C1,125 nM,94 nM,–,pIC50 [11]: 9.19
CC(C)(c1cc2cnccc2o1)N1CCN(C[C@@H](O)C[C@@H](Cc2ccccc2)C(=O)N[C@H]2c3ccccc3OC[C@H]2O)[C@H](C(=O)NCC(F)(F)F)C1,≤ 8 nM,≤ 8 nM,10.15,bioavailability [12]: 65%; half-life [13]: 52 min; Cmax [3]: 17 µM; AUC [14]: 18.8 µM·h; CLint scaled [4]: 22 mL/min/kg; clearance [5]: 4.01 mL/min/kg; IC95 [6]: 250 nM; IC95 [7]: 62 nM; IC95 [8]: ≤ 8 nM; IC95 [9]: ≤ 8 nM; pIC50 (Cytochrome P450 2D6): 6.28; pIC50 (Cytochrome P450 3A4): 7.52; IC95 [10]: 62 nM
O=C(N[C@H]1c2ccccc2C[C@H]1O)[C@H](Cc1ccccc1)C[C@H](O)CN1CCN(Cc2cccnc2)C[C@H]1C(=O)NCC(F)(F)F,–,–,–,IC95 [6]: > 1000 nM; IC95 [7]: 62 nM; IC95 [8]: 125 nM; IC95 [9]: 62 nM; IC95 [10]: 500 nM
CC(C)(c1cc2cnccc2o1)N1CCN(C[C@@H](O)C[C@@H](Cc2ccccc2)C(=O)N[C@H]2c3ccccc3OC[C@H]2O)[C@H](C(=O)NC2CC2)C1,250 nM,62 nM,9.22,–
CC(C)(c1cc2cnccc2o1)N1CCN(C[C@@H](O)C[C@@H](Cc2ccccc2)C(=O)N[C@H]2c3ccccc3OC[C@H]2O)[C@H](C(=O)NCCC(F)(F)F)C1,500 nM,62 nM,8.80,–
CC(C)(c1cc2cnccc2o1)N1CCN(C[C@@H](O)C[C@@H](Cc2ccccc2)C(=O)N[C@H]2c3ccccc3OC[C@H]2O)[C@H](C(=O)NC2CCCC2)C1,31 nM,≤ 8 nM,9.43,–
CC(C)(c1cc2cnccc2o1)N1CCN(C[C@@H](O)C[C@@H](Cc2ccccc2)C(=O)N[C@H]2c3ccccc3OC[C@H]2O)[C@H](C(=O)Nc2ccccc2)C1,> 1000 nM,250 nM,7.86,–
